# Results taken from patent US20130150399A1, “INHIBITORS OF THE UNFOLDED PROTEIN RESPONSE AND METHODS FOR THEIR USE” (The Board of Trustees of the Leland Stanford Junior …, priority 2006, published 2013).
# “And” between values parts separate entries of the source, which are not always exact repeats. Identical values can stand only once.
# Tests used:
# [1] = system: PANC1 pancreatic adenocarcinoma cells; experiment: PANC1 tumor growth in vivo; design: species or system nude mice; conditions: 60 mg/kg ip bolus every 48 hours, 5 doses
# Protocol: Dose: 60 mg/kg ip bolus injection every 48 hours. 5 total doses. 5-7 tumors per group. PANC1 pancreatic adenocarcinoma cell line.
# PANC1 pancreatic adenocarcinoma cells were implanted subcutaneously into nude mice. Mice were then given a bolus injection of one of the inventive irestatins (1401, 9337, 3611 or 9389) at a dose of 60 mg/kg every 48 hours for a total of 5 doses, with 5-7 tumors being treated per group.
# XBP1-luciferase reporter = experiment: XBP-luciferase reporter high throughput screen / IRE IC50 (tunicamycin + thapsigargin induced); type: cell-based, human
# Protocol: Specifically, HT1080 fibrosarcoma cells stably transfected with the unspliced XBP-1-luciferase reporter construct (3000/well) were plated onto a solid white 384 well microplate with a multidrop dispenser (40 μL per well). The plates were then placed into an automated incubator. After 24 hours of growth, a mixture of tunicamycin (1 μg/ml) and thapsigargin (100 nM) inducers were added, and candidate compounds were then added to the plates. After 24 hours, luciferase reagent (10 μl) was added to each well and the plates were read in a Molecular Devices Analyst GT (0.2 second read per well).
# As described above in Example 2, HT1080 fibrosarcoma cells stably expressing the XBP-luciferase reporter were plated in a 384 well microplate (4000 cells/well). After 24 hours, cells were treated with a mixture of tunicamycin (4 μg/ml) and thapsigargin (0.4 μM), followed by the addition of one compound per well (10 μM). We screened a total of 66,000 diverse molecules obtained from Specs, Chembridge and ChemRX. Twenty-four hours post-induction, BriteGlo luciferase substrate (10 μl) was added to each well and the signal intensity determined in a plate reader (0.2 s read per well). […] We retested 431 compounds from the initial screen, and selected 58 compounds for additional analysis, including calculation of IC50 values and inhibition of a CMV-luciferase reporter.
# Compounds of the screening library with structural similarity to compound 9389 (see Table 1) have been identified and in some cases further assayed for inhibitory activity. Compounds listed with “IC50” values were assayed secondarily after initially being identified in the high throughput screen. Each value represents a separate calculation of reporter inhibition based upon the high throughput robotic screening platform. The actual IC50 values are calculated and represent an estimate of the potency of each compound. This assay is not considered to be accurate below a concentration of 10 nM. Compounds classified with “mild” activity inhibited the XBP1-luciferase reporter by 10-30%. Compounds classified with “moderate” activity inhibited the XBP1-luciferase reporter by 30-75%. Compounds classified with “potent” activity inhibited the XBP1-luciferase reporter by 75-100%. Compounds classified with “undetected” activity inhibited the XBP1-luciferase reporter by less than 10% under the defined conditions.
# XBP-1 splicing = experiment: Bioluminescence imaging of XBP-1 splicing in HT1080 XBP-1s-luciferase tumors; type: in vivo; conditions: for toxicity: nude mice
# Protocol: Several nude mice were implanted with HT1080 cells stably expressing a XBP-1s-luciferase construct and XBP-1 activation was examined using bioluminescence imaging. Imaging was performed using the In Vivo Imaging System (IVIS, Xenogen Corporation, Alameda, Calif.) in the Stanford Center for Innovation in In Vivo Imaging (SCI3). This device consists of a cooled CCD camera mounted on a light-tight specimen chamber.
# XBP-luciferase reporter = XBP-luciferase reporter assay under Tm or hypoxia, HT1080 cells; type: cell-based, human; conditions: Tm alone, 24 hours
# Protocol: (§1) HT1080 cells stably expressing the XBP-luciferase construct were grown in 60 mm dishes to 60-70% confluency. Following hypoxia treatment, cells were washed twice with PBS, lysed in 400 μl 1× reporter lysis buffer (RLB) (Promega, Madison Wis.) for 30 min at 24° C. Lysates (100 μl) were mixed with an equal volume of luciferase substrate (Promega), and assayed using a luminometer. For 5×-UPRE-luciferase reporter assays, cells were co-transfected with the appropriate reporter plasmid and a control plasmid (pSV40-beta-gal) using Lipofectamine 2000 (Invitrogen, San Diego, Calif.). Twenty-four hours after transfection, fresh media was added, and cells were treated with Tm or shifted to hypoxia. After treatment, cells were lysed in 1×RLB and analyzed for luciferase activity as described above. Beta-galactosidase activity was determined using the beta-galactosidase enzyme assay system (Promega).
# A. XBP-luciferase reporter construct. Firefly luciferase was inserted downstream of the IRE1α splice site in human XBP-1 to enable the conditional translation of luciferase under ER stress in an IRE1α-dependent manner. B. Selective inhibition of the XBP-luciferase reporter by irestatin 9389. HT1080 human fibrosarcoma cells stably expressing the XBP-luciferase reporter or CMV-luciferase were cultured in the presence of Tm (4 μg/ml) and Tg (0.4 μM) and irestatin 9389 at the indicated concentrations. After 24 hours, luciferase activity was analyzed in an automated plate reader. For each cell line, values are expressed as the percent inhibition of the median for Tm/Tg-treated wells, corrected for background. C. Structure of irestatin 9389. D. XBP-luciferase reporter assay. HT1080 cells stably expressing the XBP-luciferase reporter were exposed to Tm (4 μg/ml) for 24 hours or hypoxia (0.1% oxygen) for 24 or 48 hours, in the presence of DMSO or irestatin 9389 (1 μM) as indicated. Values are expressed as the fold increases over uninduced levels. E. 5×-UPRE reporter assay. HT1080 cells were co-transfected with 5×-UPRE luciferase and SV40-beta-gal reporter plasmids, followed by exposure to Tm or hypoxia as in D. For each condition, luciferase activity is normalized to beta-galactosidase expression levels as an internal control for transfection efficiency. F. Western immunoblot analysis of XBP-1s. HT1080 cells were left untreated (lane 2) or exposed to Tm (4 μg/ml) for 20 hours in the presence of DMSO vehicle (lane 1) or the indicated irestatins (2 μM; lanes 3-6). […] Cells were harvested, lysed, and analyzed by immunoblotting with antisera specific for HIF-1α (top), XBP-1s (middle) or actin (bottom). […] Total RNA was analyzed by Northern blotting using radiolabeled probes specific for P58^IPK or DER-1. […]
# Grp78 = experiment: Western immunoblot of Grp78, HT1080 cells; type: cell-based, human; conditions: Tm (5 μg/ml) for 8 hours, positive control
# Protocol: Cells (2×10^6) were cultured in 10-cm dishes, collected using a cell scraper at 4° C., and lysed by addition of 150 μl cell lysis buffer [50 mM Tris pH 7.4, 150 mM NaCl, 10% glycerol, 0.5% Triton X-100. 0.5% NP-40, 2 mM Na3VO4, 20 mM beta-glycerophosphate, 10 mM NaF, 1 mM DTT, 1 mM PMSF). Lysates were centrifuged for 5 min at 10,000×g, and proteins (˜40 μg) were resolved by SDS-PAGE followed by semi-dry transfer to nitrocellulose membranes. Membranes were blocked in TBS-5% milk supplemented with 0.1% Tween-20. The blots were then probed overnight with relevant antibodies, washed, and incubated for 2 hours with species-specific secondary antibodies conjugated to horseradish peroxidase. After washing in block solution, immunoreactive material was detected by enhanced chemiluminescence (SuperSignal West Dura Extended, Pierce, Inc., Rockville, Ill.).
# HT1080 cells were exposed to DMSO vehicle (lane 1), irestatin 9389 (2.5 μM; lane 2) for 16 hours or Tm (5 μg/ml; lane 3) for 8 hours. Following treatments, cells were harvested, lysed, and analyzed by immunoblotting using anti-Grp78 antibody (top) or anti-actin (bottom) as a loading control. […] Cell lysates were analyzed by Western immunoblotting using anti-IRE1α (bottom) or anti-phospho-IRE1α antibodies (top). […] Lysates were analyzed by Western blot using antisera specific for phospho-JNK1 (top) or total JNK1 (bottom). […]
# [2] = system: 5×-UPRE luciferase reporter (XBP-1s); experiment: 5×-UPRE luciferase reporter assay, HT1080 cells; type: cell-based, human; conditions: Tm alone
# Protocol: as §1
# A. XBP-luciferase reporter construct. Firefly luciferase was inserted downstream of the IRE1α splice site in human XBP-1 to enable the conditional translation of luciferase under ER stress in an IRE1α-dependent manner. B. Selective inhibition of the XBP-luciferase reporter by irestatin 9389. HT1080 human fibrosarcoma cells stably expressing the XBP-luciferase reporter or CMV-luciferase were cultured in the presence of Tm (4 μg/ml) and Tg (0.4 μM) and irestatin 9389 at the indicated concentrations. After 24 hours, luciferase activity was analyzed in an automated plate reader. For each cell line, values are expressed as the percent inhibition of the median for Tm/Tg-treated wells, corrected for background. C. Structure of irestatin 9389. […] Values are expressed as the fold increases over uninduced levels. […] Cells were harvested, lysed, and analyzed by immunoblotting with antisera specific for HIF-1α (top), XBP-1s (middle) or actin (bottom). […] Total RNA was analyzed by Northern blotting using radiolabeled probes specific for P58^IPK or DER-1. […]
# Since these assays employed a chimeric XBP-luciferase substrate, we next determined whether irestatin 9389 could inhibit the function of endogenous XBP-1s. […]
molecule,measurement,setting,value
CN1CCN(c2ccc3sc4ccccc4c(=O)c3c2)CC1 [Compound 1401],tumor growth,[1],"significant tumor growth was observed in untreated mice, but not in mice treated with the irestatins"
Cc1cccc(NC(=O)c2sc3nc(C)cc(C(F)(F)F)c3c2N)n1 [Compound 2750],% Inh,"XBP1-luciferase reporter; Assay HTS, Conc 10 uM",16.6%
Nc1ccc(-c2ccc(-c3ccc(N)cc3)c(N)c2)cc1 [Compound 3281],toxicity,XBP-1 splicing; 50 mg/kg IP,no apparent toxicity
same,XBP-1 splicing activity (bioluminescence),"XBP-1 splicing; 50 mg/kg IP, 8 hrs after injection",undetectable
same,XBP-1 splicing (bioluminescence),XBP-1 splicing; 8 hrs after a second injection,again inhibited
Cc1cc2nc(NC(=O)CCCC(=O)O)sc2cc1C [Compound 3611],tumor growth,[1],"significant tumor growth was observed in untreated mice, but not in mice treated with the irestatins"
Cc1csc(NC(=O)c2sc3nc4c(c(C(F)(F)F)c3c2N)CCCC4)n1 [Compound 4335],% Inh,"XBP1-luciferase reporter; Assay IRE IC50, Conc 20 uM",70.4%
Cc1csc(NC(=O)c2sc3nc4c(c(C(F)(F)F)c3c2N)CCC4)n1 [Compound 5500],toxicity,XBP-1 splicing; 50 mg/kg IP,no apparent toxicity
same,effect on XBP-1 splicing (bioluminescence),"XBP-1 splicing; 50 mg/kg IP, at the time points assayed",did not have any affect on XBP-1 splicing
same,% Inh,"XBP1-luciferase reporter; Assay IRE IC50, Conc 20 uM",104.4%
N#Cc1cccc(NC(=O)c2sc3nc4c(c(C(F)(F)F)c3c2N)CCC4)c1 [Compound 8878],% Inh,"XBP1-luciferase reporter; Assay IRE IC50, Conc 20 uM",72.4% and 50.0%
Cc1cn2cc(-c3ccc4ccccc4c3)nc2s1 [Compound 9337],tumor growth,[1],"significant tumor growth was observed in untreated mice, but not in mice treated with the irestatins"
"tunicamycin [Tm, reference compound]",increase of XBP-luciferase activity,XBP-luciferase reporter,60 fold
same,Grp78 levels,Grp78,robustly induced Grp78
same,increase of 5×-UPRE luciferase activity over untreated cells,[2],~12 fold
